In patent US20070082075A1, “Traditional chinese medicine preparation for treatment of tumor and method of making and using same” (priority 2003, published 2007):
“And” between values parts separate entries of the source, which are not always exact repeats. Equal entries are not always repeated. Where two headings read alike, the source gives them in different places. Marks after values point to notes of the source that are not given here.

How the values were obtained:
[1] = test system: S180 sarcomas; assay type: in vivo, Kunming mice
[2] = test system: human gastric cancer cell line MKN; details: mouse, in vivo
[3] = test system: mice colon carcinoma C26; details: mouse, in vivo, 30 mg/kg
[4] = test system: human liver cancer cell line QGY; details: mouse, in vivo
[5] = test system: Lewis lung carcinoma; details: mouse, in vivo

**Q.** How did the inhibition rate % ([1]; 15.0 mg/kg ip × 7) turn out when O=P1(N(CCCl)CCCl)NCCCO1 (centres unmarked) [cyclophosphamide] was run?
**A.** 45.02*** %

**Q.** And the “tumor weight (g) x ± SD” value ([1]; 15.0 mg/kg ip × 7)?
**A.** 1.71 ± 0.25 g

**Q.** And the inhibition rate % ([1]; 30.0 mg/kg ip × 7)?
**A.** 84.24*** %

**Q.** And the “tumor weight (g) x ± SD” value ([1]; 30.0 mg/kg ip × 7)?
**A.** 0.49 ± 0.12 g

**Q.** And the inhibition ratio % [2]?
**A.** 88.11*** % and 89.06*** %

**Q.** And the “tumor weight x ± SD” value [2]?
**A.** 0.17 ± 0.15 and 0.14 ± 0.05

**Q.** What about the inhibition ratio % [3] of the same compound?
**A.** 91.02*** % and 79.12*** %

**Q.** And the “tumor weight x ± SD” value [3]?
**A.** 0.22 ± 0.06 and 0.19 ± 0.06

**Q.** And the inhibition ratio % ([3]; ip)?
**A.** 91.90*** % and 81.35*** %

**Q.** What about the “tumor weight x ± SD” value ([3]; ip) of the same compound?
**A.** 0.22 ± 0.06 and 0.18 ± 0.06

**Q.** What about the inhibition ratio % [4] of the same compound?
**A.** 88.79*** % and 89.05*** %

**Q.** And the “tumor weight x ± SD” value [4]?
**A.** 0.25 ± 0.14 and 0.22 ± 0.08

**Q.** What about the inhibition ratio % [5] of the same compound?
**A.** 88.32*** % and 88.49*** %

**Q.** What about the “tumor weight x ± SD” value [5] of the same compound?
**A.** 0.25 ± 0.07 and 0.29 ± 0.07
